# According to patent US12559464B2, “Quinazolinone dione compounds and uses thereof” (Edgewise Therapeutics, Inc., priority 2023, dated 2026):
# Columns and labels:
# [1] = biological target: T1, myosin ATPase, Porcine Ventricle myofibrils (Sus scrofa, UniProt P79293); test: Myofibril ATPase assay, porcine ventricle myofibrils; assay type: biochemical, porcine (Yucatan minipigs); settings: concentration required to reduce myosin ATP-ase activity by 25%; Porcine Ventricle Prep pCa 25 GEOM_MEAN
# T1 construct: Myofibrils from porcine cardiac muscle was isolated from the left ventricle of Yucatan minipigs; tissue Exemplar Genetics; host or cells: left ventricle of Yucatan minipigs, myofibrils
# Description: (§1) Myofibril ATPase assays are known in the art to be useful in evaluating small molecules for the treatment of HCM and other cardiac indications. Myosin ATPase activity is assessed by using a coupled reaction system, in which ADP generated by the myosin ATPase function is coupled to the disappearance of NADH through the pyruvate kinase/lactate dehydrogenase (PK-LDH) system. ATPase activity produces ADP, which is used as a substrate for PK to produce pyruvate and regenerate ATP. The pyruvate is then used as a substrate by LDH to oxidize NADH to NAD+. The rate of the reaction is monitored through the time-dependent disappearance of NADH using absorbance at 340 nm, which, when the couple system is in stoichiometric excess, is directly correlated to the ATPase activity of the myosin. Inhibition of ATPase activity by the assayed compounds is indicated by a reduced rate of NADH loss, relative to vehicle-treated controls, over the experimental time window. Porcine Ventricle are the primary sources of myofibril material.
# (§2) Materials: The following stock solutions and reagents were used in the Myofibril ATPase Assay: Stock Solutions; PIPES, 200 mM and 120 mM in H2O, pH 7.0; MgCl2 in H2O, 200 mM; PM12 Buffer, 10×: 120 mM PIPES (from 200 mM stock), 20 mM MgCl2 (from 200 mM stock); PBS Buffer, 1X: 135 mM NaCl, […], 10 mM Na(PO4)2, 1.8 mM K2(PO4), pH 7.4; EGTA in H2O, 250 mM; CaCl2) in H2O, 500 mM; DTT in H2O, 1 M; BSA in H2O, 10 mg/mL; ATP in 1×PBS, 50 mM; NADH in 1X PM12 and 1 mM DTT, 26 mM; PEP in 1X PM12, 78 mM, pH 7.0.
# (§3) Stock Solutions of pCa buffer. Combine PIPES, CaCl2, and EGTA solutions with water. Adjust pH to 7.0 and bring final volume to 100 mL.
# (§4) Buffer A & Buffer B. Prepare buffers A and B according to the table below.
# (§5) Myofibril ATPase Assay Procedure: BSA, ATP, NADH, PEP, and DTT solutions were thawed at room temperature, then transferred to ice. Pellet-frozen myofibrils were transferred with approximately twice the required volume into a sufficiently large tube and capped. Myofibrils were thawed by rolling in a water bath for approximately 15 min at room temperature and cooled on ice. Buffers A and B were prepared by adjusting volumes as necessary for required number of wells and stored on ice. 0.5 μL of the compounds to be assayed were added into wells. 25 μL of Buffer A was dispensed into the wells, followed by 25 μL of Buffer B. The wells were measured for absorbance at 340 nm, using a kinetic protocol in which the wells are read every 1.5-2 min for 75 min. Assay data analysis was performed using a python script that filtered the raw data to retain those points falling between a starting and ending time and between a maximum and minimum absorbance, then used the filtered time-domain 340 nm absorbance data in each well to calculate a slope via linear regression analysis in units of mAU/min. Compound slopes were normalized between 100% and 0% activity, where 100% represented the slope of wells containing only compound vehicle, and fit to a 4-parameter logistic model. In addition to the fit parameters, the EC25% values were calculated, relative to the 100% normalized value. Additionally, the Y125 values were calculated for compounds that increased myosin ATP-ase activity. Fit parameters, calculated effective concentrations, filtered raw data, and calculated slopes were exported, in addition to compound-specific graphs of normalized ATPase activity versus concentration in μM. Each value reported in Table 8 is either a Y75 value or a Y125 value. Values without pound sign, #, are Y75 values, which reflect the concentration required to reduce myosin ATP-ase activity by 25% (e.g., Y-axis activity value is 75% of initial value), relative to myosin ATP-ase activity in the absence of exogenous compound. […]
# [2] = test system: myosin ATPase, Rabbit Psoas myofibrils; test: Myofibril ATPase assay, rabbit psoas (skeletal) myofibrils; assay type: biochemical; settings: concentration required to reduce myosin ATP-ase activity by 25%; Rabbit Psoas Prep pCa 25 GEOM_MEAN
# Description: [Worded in the source for another species; this species is reported under the same test.] as §1, §2, §3, §4, §5
# [3] = test system: myosin ATPase, Porcine Atria myofibrils; test: Myofibril ATPase assay, porcine atria myofibrils; assay type: biochemical; settings: concentration required to reduce myosin ATP-ase activity by 25%; Porcine Atria Prep pCa 25 GEOM_MEAN
# T1 sequence (P79293 whole entry): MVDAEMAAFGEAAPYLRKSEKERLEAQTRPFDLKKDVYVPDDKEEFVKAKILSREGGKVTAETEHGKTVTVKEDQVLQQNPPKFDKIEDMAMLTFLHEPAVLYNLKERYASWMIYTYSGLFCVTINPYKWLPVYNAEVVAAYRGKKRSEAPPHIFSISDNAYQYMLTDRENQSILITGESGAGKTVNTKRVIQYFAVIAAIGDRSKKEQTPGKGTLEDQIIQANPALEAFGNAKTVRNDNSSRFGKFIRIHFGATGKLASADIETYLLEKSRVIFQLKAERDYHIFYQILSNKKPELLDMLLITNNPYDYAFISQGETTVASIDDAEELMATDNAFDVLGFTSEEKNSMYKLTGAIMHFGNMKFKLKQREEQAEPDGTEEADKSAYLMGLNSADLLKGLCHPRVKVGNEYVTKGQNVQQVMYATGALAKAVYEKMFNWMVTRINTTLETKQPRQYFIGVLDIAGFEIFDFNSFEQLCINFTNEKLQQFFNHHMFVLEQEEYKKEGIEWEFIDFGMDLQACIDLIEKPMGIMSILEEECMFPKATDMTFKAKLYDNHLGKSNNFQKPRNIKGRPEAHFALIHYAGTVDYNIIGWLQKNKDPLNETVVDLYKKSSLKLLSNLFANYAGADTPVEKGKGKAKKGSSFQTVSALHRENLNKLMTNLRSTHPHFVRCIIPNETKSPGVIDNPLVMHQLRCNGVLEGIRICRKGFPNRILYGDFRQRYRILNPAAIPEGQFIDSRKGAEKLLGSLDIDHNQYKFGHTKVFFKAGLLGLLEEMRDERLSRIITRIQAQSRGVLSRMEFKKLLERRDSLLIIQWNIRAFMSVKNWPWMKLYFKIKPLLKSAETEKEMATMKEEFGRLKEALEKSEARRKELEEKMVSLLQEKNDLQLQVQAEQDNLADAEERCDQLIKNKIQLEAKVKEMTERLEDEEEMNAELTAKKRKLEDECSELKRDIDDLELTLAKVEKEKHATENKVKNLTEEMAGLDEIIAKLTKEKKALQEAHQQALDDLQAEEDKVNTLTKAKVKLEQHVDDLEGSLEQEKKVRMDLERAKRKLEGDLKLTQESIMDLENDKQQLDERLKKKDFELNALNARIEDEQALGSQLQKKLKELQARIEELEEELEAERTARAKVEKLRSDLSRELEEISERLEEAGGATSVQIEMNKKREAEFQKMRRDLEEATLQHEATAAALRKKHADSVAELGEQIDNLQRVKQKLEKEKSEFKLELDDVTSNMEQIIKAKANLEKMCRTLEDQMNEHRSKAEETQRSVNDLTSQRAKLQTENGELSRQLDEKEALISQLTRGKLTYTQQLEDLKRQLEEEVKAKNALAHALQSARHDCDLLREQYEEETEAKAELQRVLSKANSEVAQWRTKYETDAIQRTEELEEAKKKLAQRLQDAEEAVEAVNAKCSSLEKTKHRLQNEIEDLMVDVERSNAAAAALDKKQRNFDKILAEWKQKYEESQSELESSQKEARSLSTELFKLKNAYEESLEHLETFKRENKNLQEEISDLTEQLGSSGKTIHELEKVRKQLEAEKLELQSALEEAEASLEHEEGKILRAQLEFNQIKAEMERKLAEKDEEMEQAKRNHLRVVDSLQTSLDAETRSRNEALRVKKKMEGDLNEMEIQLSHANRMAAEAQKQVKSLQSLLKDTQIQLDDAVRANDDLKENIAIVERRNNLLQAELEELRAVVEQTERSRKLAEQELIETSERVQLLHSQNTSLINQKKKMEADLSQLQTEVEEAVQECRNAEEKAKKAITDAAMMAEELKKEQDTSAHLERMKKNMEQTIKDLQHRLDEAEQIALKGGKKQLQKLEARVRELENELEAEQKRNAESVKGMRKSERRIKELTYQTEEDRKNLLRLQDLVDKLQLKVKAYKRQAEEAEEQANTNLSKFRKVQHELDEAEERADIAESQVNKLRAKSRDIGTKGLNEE
SMILES,Porcine Ventricle EC25 (Y75 value) [1],Rabbit Psoas EC25 (Y75 value) [2],Porcine Atria EC25 (Y75 value) [3]
"C[C@@H](NC(=O)Cn1c(=O)[nH]c2ccc(F)cc2c1=O)c1ncc(C#N)cn1 (single isomer, unassigned) [Compound 1]",20.04 µM,0.59 µM,0.699 µM
"C[C@@H](NC(=O)Cn1c(=O)[nH]c2ccc(F)c(F)c2c1=O)c1ccc(C#N)nn1 (single isomer, unassigned) [Compound 3]",100 µM,2.538 µM,1.074 µM
"C[C@H](NC(=O)Cn1c(=O)[nH]c2ccc(F)c(F)c2c1=O)c1ccc(C#N)nn1 (single isomer, unassigned) [Compound 4]",4.869 µM,0.204 µM,0.178 µM
"C[C@@H](NC(=O)Cn1c(=O)[nH]c2ccc(F)cc2c1=O)c1ncc(C#N)cc1F (single isomer, unassigned) [Compound 7]",1.467 µM,5.692 µM,0.3543 µM
"C[C@H](NC(=O)Cn1c(=O)[nH]c2ccc(F)cc2c1=O)c1ncc(C#N)cc1F (single isomer, unassigned) [Compound 8]",0.448 µM,0.108 µM,0.094 µM
"Cc1c(F)ccc2[nH]c(=O)n(CC(=O)N[C@@H]3CCc4cc(C#N)cnc43)c(=O)c12 (single isomer, unassigned) [Compound 9]",0.547 µM,0.631 µM,0.078 µM
"Cc1cc(C#N)cnc1[C@@H](C)NC(=O)Cn1c(=O)[nH]c2ccc(F)c(F)c2c1=O (single isomer, unassigned) [Compound 13]",0.119 µM,0.043 µM,0.048 µM
"Cc1cc(C#N)cnc1[C@H](C)NC(=O)Cn1c(=O)[nH]c2ccc(F)c(F)c2c1=O (single isomer, unassigned) [Compound 14]",23.76 µM,21.27 µM,5.931 µM
"C[C@@H](NC(=O)Cn1c(=O)[nH]c2ccc(C#N)cc2c1=O)c1ncc(C#N)cc1F (single isomer, unassigned) [Compound 15]",100 µM,100 µM,4.31 µM
"C[C@@H](NC(=O)Cn1c(=O)[nH]c2ccc(F)c(C#N)c2c1=O)c1ncc(C#N)cc1F (single isomer, unassigned) [Compound 3001]",100.00 µM,–,5.34 µM
"C[C@H](NC(=O)Cn1c(=O)[nH]c2ccc(F)c(C#N)c2c1=O)c1ncc(C#N)cc1F (single isomer, unassigned) [Compound 3002]",0.24 µM,–,0.11 µM
"Cc1ccc2[nH]c(=O)n(CC(=O)N[C@H](C)c3ncc(C#N)cc3F)c(=O)c2c1F (single isomer, unassigned) [Compound 3003]",63.05 µM,–,1.32 µM
"Cc1ccc2[nH]c(=O)n(CC(=O)N[C@@H](C)c3ncc(C#N)cc3F)c(=O)c2c1F (single isomer, unassigned) [Compound 3004]",0.51 µM,–,0.18 µM

# More lines, now with the values ahead:
Porcine Ventricle EC25 (Y75 value) [1],Rabbit Psoas EC25 (Y75 value) [2],Porcine Atria EC25 (Y75 value) [3],SMILES
100 µM,86.83 µM,24.53 µM,"C[C@H](NC(=O)Cn1c(=O)[nH]c2ccc(F)cc2c1=O)c1ncc(C#N)cn1 (single isomer, unassigned) [Compound 2]"
–,100 µM,–,"C[C@H](NC(=O)Cn1c(=O)[nH]c2ccccc2c1=O)c1cccc2ccccc12 (single isomer, unassigned) [Compound 5002]"
0.256 µM,0.591 µM,–,"C[C@H](NC(=O)Cn1c(=O)[nH]c2cccc(Cl)c2c1=O)c1ccc(F)cc1F [Compound 136, (S)-2-(5-chloro-2,4-dioxo-1,4-dihydroquinazolin-3(2H)-yl)-N-(1-(2,4-difluorophenyl)ethyl)acetamide]"
7.022 µM,0.52 µM,–,"C[C@H](NC(=O)Cn1c(=O)[nH]c2ccccc2c1=O)c1ccc(F)cc1F [Compound 167, (S)-N-(1-(2,4-difluorophenyl)ethyl)-2-(2,4-dioxo-1,4-dihydroquinazolin-3(2H)-yl)acetamide]"
–,100 µM,–,"CC(NC(=O)Cn1c(=O)[nH]c2ccccc2c1=O)C1CN(C)CCO1 (centres unmarked) [Compound 5001, 2-(2,4-dioxo-1,4-dihydroquinazolin-3(2H)-yl)-N-(1-(4-methylmorpholin-2-yl)ethyl)acetamide]"
–,100 µM,–,"CC(NC(=O)Cn1c(=O)[nH]c2ccccc2c1=O)C1CCCCC1 (centres unmarked) [Compound 5003, N-(1-cyclohexylethyl)-2-(2,4-dioxo-1,4-dihydroquinazolin-3(2H)-yl)acetamide]"
–,100 µM,–,"O=C(Cn1c(=O)[nH]c2ccccc2c1=O)NCc1ccc(Cn2cccn2)cc1 [Compound 5004, N-(4-((1H-pyrazol-1-yl)methyl)benzyl)-2-(2,4-dioxo-1,4-dihydroquinazolin-3(2H)-yl)acetamide]"
–,100 µM,–,"O=C(Cn1c(=O)[nH]c2ccccc2c1=O)NCc1ccccn1 [Compound 5005, 2-(2,4-dioxo-1,4-dihydroquinazolin-3(2H)-yl)-N-(pyridin-2-ylmethyl)acetamide]"
–,100 µM,–,"O=C(Cn1c(=O)[nH]c2ccccc2c1=O)NCc1cccnc1 [Compound 5006, 2-(2,4-dioxo-1,4-dihydroquinazolin-3(2H)-yl)-N-(pyridin-3-ylmethyl)acetamide]"
–,100 µM,–,"O=C(Cn1c(=O)[nH]c2ccccc2c1=O)NCc1ccncc1 [Compound 5007, 2-(2,4-dioxo-1,4-dihydroquinazolin-3(2H)-yl)-N-(pyridin-4-ylmethyl)acetamide]"
–,100 µM,–,"O=C(Cn1c(=O)[nH]c2ccccc2c1=O)NCCc1ccccc1Cl [Compound 5008, N-(2-chlorophenethyl)-2-(2,4-dioxo-1,4-dihydroquinazolin-3(2H)-yl)acetamide]"
